Assay results as given in the NIST ThermoML archive (doi:10.1021/je0503296).

Settings: Liquid, Vibrating object- edge clamped plate

CCCCCCCC [octane]
Settings | mass density [kg/m3] | viscosity [mPa·s]
323.15 K, 100 kPa | 676 | 0.3892
323.15 K, 10096 kPa | 687.7 | 0.44
323.15 K, 20701 kPa | 698.1 | 0.495
323.15 K, 30654 kPa | 706.7 | 0.53
323.15 K, 41050 kPa | 714.6 | 0.576
323.15 K, 54543 kPa | 723.9 | 0.633
323.15 K, 68036 kPa | 732.2 | 0.693
348.14 K, 100 kPa | 654.3 | 0.3011
348.14 K, 7551 kPa | 664.7 | 0.3338
348.14 K, 13680 kPa | 672.2 | 0.3513
348.14 K, 20500 kPa | 679.4 | 0.378
348.14 K, 27466 kPa | 686.1 | 0.4008
348.14 K, 27469 kPa | 686.1 | 0.4
348.14 K, 34305 kPa | 692.1 | 0.424
348.14 K, 34314 kPa | 690.8 | 0.424
348.14 K, 41226 kPa | 697.9 | 0.449
348.14 K, 41227 kPa | 697.8 | 0.449
348.14 K, 48070 kPa | 703.1 | 0.471
348.14 K, 55000 kPa | 708.2 | 0.498
348.14 K, 55004 kPa | 708.1 | 0.499
348.14 K, 61992 kPa | 714.2 | 0.522
348.14 K, 61994 kPa | 712.8 | 0.533
373.12 K, 6723 kPa | 644.7 | 0.2757
373.12 K, 6724 kPa | 644.6 | 0.2758
373.12 K, 20592 kPa | 662.9 | 0.3205
373.12 K, 20599 kPa | 662.9 | 0.3217
373.12 K, 27397 kPa | 670.3 | 0.3429
373.12 K, 27402 kPa | 670.4 | 0.3429
373.12 K, 34317 kPa | 677.1 | 0.3646
373.12 K, 34324 kPa | 677.2 | 0.3649
373.12 K, 41184 kPa | 683.5 | 0.381
373.12 K, 41207 kPa | 683.6 | 0.38
373.12 K, 41221 kPa | 683.6 | 0.384
373.12 K, 48024 kPa | 689.2 | 0.409
373.12 K, 48032 kPa | 689.1 | 0.409
373.12 K, 54853 kPa | 694.6 | 0.433
373.12 K, 54866 kPa | 694.6 | 0.432
373.12 K, 61686 kPa | 699.8 | 0.447
373.12 K, 61704 kPa | 699.8 | 0.449
423.09 K, 14725 kPa | 620.5 | 0.229
423.09 K, 27159 kPa | 638.8 | 0.252
423.09 K, 40831 kPa | 655.5 | 0.287
423.09 K, 54591 kPa | 668.8 | 0.344
423.09 K, 68420 kPa | 676.4 | 0.352

Cc1ccccc1 [toluene]
Settings | mass density, 323.15 K [kg/m3] | mass density, 373.11 K [kg/m3] | viscosity, 323.15 K [mPa·s] | viscosity, 373.11 K [mPa·s]
100 kPa | 837 | – | 0.421 | –
13270 kPa | – | 807.3 | – | 0.2924
13940 kPa | 850.7 | – | 0.482 | –
26975 kPa | – | 822.5 | – | 0.3398
27338 kPa | 861.7 | – | 0.524 | –
40789 kPa | – | 834.2 | – | 0.3691
41055 kPa | 871.5 | – | 0.571 | –
54593 kPa | 880.1 | – | 0.615 | –
54631 kPa | – | 845 | – | 0.419
68135 kPa | 888.1 | – | 0.66 | –
68196 kPa | – | 853.4 | – | 0.436
